Literature values as cited in paper PMC9800952 (Asian Journal of Pharmaceutical Sciences, 2022).

Conditions: pH 7

Compound: CC(C)OC(=O)CCC/C=C\C[C@@H]1[C@@H](CC[C@@H](O)CCc2ccccc2)[C@H](O)C[C@@H]1O [latanoprost]
- LogD (pH7): 4.28
